Laboratory results: patent US10202387B2, “Heterocyclyl linked imidazopyridazine derivatives as PI3KB inhibitors” (Janssen Pharmaceutica NV, priority 2014, dated 2019)

Legend:
[1] = tested on: Akt phosphorylated at Ser473 in PC-3 cells; test: Cellular assay: phosphorylation of Akt (Ser473) in PC-3 cells, MSD ELISA; format: cell-based; settings: Homo sapiens, 1 h, 60 min incubation with compound, read-out: IC50 pAkt_S473
Method: (§1) Cellular activity of PI3Kβ inhibitors was determined by quantifying the phosphorylation of Akt in PC-3 cells. Akt phosphorylated at Ser473 and Thr308 were measured using an enzyme-linked immunosorbent assay (ELISA; Meso Scale Discovery (MSD). Gaithersburg, Md.) and specific primary antibodies from MSD.
(§2) On day 1, PC3 cells (ATCC […]) were seeded into PerkinElmer MW96 plates at 25.000 cells per well, in 75 μl complete culture medium (DMEM (Dulbecco's Modified Eagle's Medium) high glucose. AQmedia™, D0819, Sigma-Aldrich) containing 10% heat inactivated FCS (Fetal Bovine Serum) and incubated at 37° C., 5% CO2 during 24 hours. On day 2, compound or DMSO (dimethyl sulfoxide) (0.3%) was added and cells were further incubated for 60 min at 37° C., 5% CO2 in a total volume of 100 μl of medium.
(§3) The phosphoprotein assay was executed according to vendor instructions in the Phospho-Akt (Ser473) Assay Whole Cell Lysate Kit (MSD #K15100D-3) and the Phospho-Akt (Thr308) Assay Whole Cell Lysate Kit (MSD #K151DYD-3) using the lysis, blocking and wash buffer provided.
(§4) Briefly, at the end of the cell treatment period, media were removed by aspiration and adherent cells were lysed in 50 μl ice-cold lysis buffer. MSD plates are supplied pre-coated with capture antibodies for Phospho-Akt (Ser473 and Thr308). After blocking, lysates from tissue culture plates were added and plates were washed. Then, a solution containing the detection antibody (anti-total Akt conjugated with an electrochemiluminescent compound-MSD Sulfo-tag label) was added. The signals were detected using an MSD SECTOR Imager 6000 and are proportional to the phospho-Akt titres.
(§5) Data were processed. The percentage of inhibition was plotted against the log concentration of test compounds, and the sigmoidal log concentration-effect curve of best fit was calculated by nonlinear regression analysis. From these concentration-response curves, the IC50 values were calculated. Five concentrations were used for curve fitting.

PIK3Cδ_h = target: T1, PIK3Cδ_h (Homo sapiens, UniProt O00329); test: Enzyme binding assay (KINOMEscan); settings: DiscoveRx
T1 construct: purchased DiscoveRx Corporation, San Diego (KINOMEscan service)
T1 sequence (O00329 1-1044): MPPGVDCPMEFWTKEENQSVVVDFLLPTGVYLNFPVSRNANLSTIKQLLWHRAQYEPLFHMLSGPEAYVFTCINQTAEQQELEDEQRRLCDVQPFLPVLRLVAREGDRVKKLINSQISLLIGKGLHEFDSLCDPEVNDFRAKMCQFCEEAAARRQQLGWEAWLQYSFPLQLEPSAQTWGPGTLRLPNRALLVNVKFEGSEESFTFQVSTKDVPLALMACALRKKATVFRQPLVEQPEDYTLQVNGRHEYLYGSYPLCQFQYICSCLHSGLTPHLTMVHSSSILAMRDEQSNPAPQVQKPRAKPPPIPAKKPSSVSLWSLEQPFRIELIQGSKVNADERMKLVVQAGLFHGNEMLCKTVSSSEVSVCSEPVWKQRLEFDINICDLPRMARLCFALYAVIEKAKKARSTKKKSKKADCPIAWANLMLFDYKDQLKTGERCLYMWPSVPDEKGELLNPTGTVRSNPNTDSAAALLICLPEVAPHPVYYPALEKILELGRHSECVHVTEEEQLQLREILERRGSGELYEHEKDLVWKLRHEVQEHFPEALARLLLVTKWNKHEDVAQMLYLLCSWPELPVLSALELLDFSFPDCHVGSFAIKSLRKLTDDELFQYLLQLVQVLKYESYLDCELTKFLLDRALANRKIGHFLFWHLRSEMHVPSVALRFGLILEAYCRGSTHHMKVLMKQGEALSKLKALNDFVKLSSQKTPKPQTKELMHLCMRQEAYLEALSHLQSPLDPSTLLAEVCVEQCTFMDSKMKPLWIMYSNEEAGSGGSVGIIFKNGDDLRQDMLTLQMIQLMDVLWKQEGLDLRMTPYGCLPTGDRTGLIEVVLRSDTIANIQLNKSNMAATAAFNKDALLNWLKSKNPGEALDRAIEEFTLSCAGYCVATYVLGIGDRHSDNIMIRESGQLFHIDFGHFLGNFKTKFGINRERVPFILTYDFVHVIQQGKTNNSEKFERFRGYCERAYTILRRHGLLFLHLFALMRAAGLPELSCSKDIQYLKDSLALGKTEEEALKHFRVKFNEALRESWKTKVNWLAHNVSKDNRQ
Method: (§6) Enzyme Binding Assays (KINOMEscan®)
(§7) Kinase enzyme binding affinities of compounds disclosed herein were determined using the KINOMEscan technology performed by DiscoveRx Corporation, San Diego, Calif., USA (www.kinomescan.com). Table A reports the obtained Kd values (nM), with the Kd being the inhibitor binding constant: […]

PIK3Cβ_h = target: T2, PIK3Cβ_h (Homo sapiens, UniProt P42338); test: Enzyme binding assay (KINOMEscan); settings: DiscoveRx
T2 construct: purchased DiscoveRx Corporation, San Diego (KINOMEscan service)
Method: as §6, §7

MTOR_h = target: T3, MTOR_h (Homo sapiens, UniProt P42345); test: Enzyme binding assay (KINOMEscan); settings: DiscoveRx
T3 construct: purchased DiscoveRx Corporation, San Diego (KINOMEscan service)
Method: as §6, §7

PIK3Cγ_h = target: T4, PIK3Cγ_h (Homo sapiens, UniProt P48736); test: Enzyme binding assay (KINOMEscan); settings: DiscoveRx
T4 construct: purchased DiscoveRx Corporation, San Diego (KINOMEscan service)
Method: as §6, §7

PIK3Cα_h = target: T5, PIK3Cα_h (Homo sapiens, UniProt P42336); test: Enzyme binding assay (KINOMEscan); settings: DiscoveRx
T5 construct: purchased DiscoveRx Corporation, San Diego (KINOMEscan service)
Method: as §6, §7

[2] = tested on: Akt phosphorylated at Thr308 in PC-3 cells; test: Cellular assay: phosphorylation of Akt (Thr308) in PC-3 cells, MSD ELISA; format: cell-based; settings: Homo sapiens, 1 h, 60 min incubation with compound, read-out: IC50 pAkt_Thr308
Method: as §1, §2, §3, §4, §5

T2 sequence (P42338 whole entry): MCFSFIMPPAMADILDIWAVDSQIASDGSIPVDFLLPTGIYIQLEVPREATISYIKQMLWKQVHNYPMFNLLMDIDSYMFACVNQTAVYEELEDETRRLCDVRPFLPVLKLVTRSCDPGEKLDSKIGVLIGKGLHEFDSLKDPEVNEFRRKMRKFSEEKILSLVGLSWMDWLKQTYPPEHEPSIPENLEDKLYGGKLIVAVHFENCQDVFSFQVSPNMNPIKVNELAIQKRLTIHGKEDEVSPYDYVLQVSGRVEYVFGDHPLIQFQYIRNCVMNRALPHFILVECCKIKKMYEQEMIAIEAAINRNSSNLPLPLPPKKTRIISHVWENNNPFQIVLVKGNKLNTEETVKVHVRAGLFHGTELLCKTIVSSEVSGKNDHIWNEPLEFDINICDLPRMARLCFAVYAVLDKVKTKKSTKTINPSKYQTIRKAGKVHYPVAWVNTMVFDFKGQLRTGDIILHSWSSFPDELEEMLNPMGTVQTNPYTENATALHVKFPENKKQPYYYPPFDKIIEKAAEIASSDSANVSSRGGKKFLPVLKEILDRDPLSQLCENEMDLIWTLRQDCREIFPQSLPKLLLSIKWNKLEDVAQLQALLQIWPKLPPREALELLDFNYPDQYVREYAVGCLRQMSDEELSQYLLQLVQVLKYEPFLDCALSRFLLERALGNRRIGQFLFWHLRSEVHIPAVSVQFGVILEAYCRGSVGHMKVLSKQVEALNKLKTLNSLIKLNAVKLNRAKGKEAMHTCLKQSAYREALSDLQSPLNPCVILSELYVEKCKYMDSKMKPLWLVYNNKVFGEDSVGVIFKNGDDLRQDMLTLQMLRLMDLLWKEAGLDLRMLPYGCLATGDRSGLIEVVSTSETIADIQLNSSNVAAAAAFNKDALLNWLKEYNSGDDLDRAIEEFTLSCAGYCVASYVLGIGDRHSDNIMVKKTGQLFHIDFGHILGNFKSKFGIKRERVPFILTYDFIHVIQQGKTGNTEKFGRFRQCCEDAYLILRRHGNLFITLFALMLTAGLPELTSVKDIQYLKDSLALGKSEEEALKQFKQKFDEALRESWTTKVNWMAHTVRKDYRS
T5 sequence (P42336 whole entry): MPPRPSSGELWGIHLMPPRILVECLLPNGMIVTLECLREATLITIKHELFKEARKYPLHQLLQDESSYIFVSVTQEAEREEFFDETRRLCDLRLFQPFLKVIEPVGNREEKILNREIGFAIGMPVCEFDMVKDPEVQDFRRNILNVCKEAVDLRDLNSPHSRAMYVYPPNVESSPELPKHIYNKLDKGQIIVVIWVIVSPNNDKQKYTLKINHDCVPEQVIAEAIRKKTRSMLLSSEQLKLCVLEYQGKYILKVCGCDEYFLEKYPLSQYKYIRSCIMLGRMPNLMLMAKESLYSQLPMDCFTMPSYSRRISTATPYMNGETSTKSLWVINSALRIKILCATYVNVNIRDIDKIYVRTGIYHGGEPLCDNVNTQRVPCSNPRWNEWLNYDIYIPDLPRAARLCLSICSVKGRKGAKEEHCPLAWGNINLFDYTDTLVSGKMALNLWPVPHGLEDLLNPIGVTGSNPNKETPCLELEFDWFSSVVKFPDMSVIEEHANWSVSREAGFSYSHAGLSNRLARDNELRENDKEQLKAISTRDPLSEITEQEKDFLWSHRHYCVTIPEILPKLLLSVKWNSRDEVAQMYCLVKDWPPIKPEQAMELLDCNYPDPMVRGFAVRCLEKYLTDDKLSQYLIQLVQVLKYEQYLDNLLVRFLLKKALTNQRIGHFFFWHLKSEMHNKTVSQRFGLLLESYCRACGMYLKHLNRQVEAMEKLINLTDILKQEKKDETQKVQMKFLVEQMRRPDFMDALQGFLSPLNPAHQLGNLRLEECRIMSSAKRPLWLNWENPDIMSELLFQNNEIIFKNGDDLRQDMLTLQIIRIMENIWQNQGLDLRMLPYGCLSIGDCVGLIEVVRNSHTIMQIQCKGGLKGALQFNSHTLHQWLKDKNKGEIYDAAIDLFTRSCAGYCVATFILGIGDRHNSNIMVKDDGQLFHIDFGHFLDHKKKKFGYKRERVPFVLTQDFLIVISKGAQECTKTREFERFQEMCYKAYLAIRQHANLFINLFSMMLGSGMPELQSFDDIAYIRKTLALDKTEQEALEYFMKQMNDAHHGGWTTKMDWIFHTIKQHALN
T4 sequence (P48736 whole entry): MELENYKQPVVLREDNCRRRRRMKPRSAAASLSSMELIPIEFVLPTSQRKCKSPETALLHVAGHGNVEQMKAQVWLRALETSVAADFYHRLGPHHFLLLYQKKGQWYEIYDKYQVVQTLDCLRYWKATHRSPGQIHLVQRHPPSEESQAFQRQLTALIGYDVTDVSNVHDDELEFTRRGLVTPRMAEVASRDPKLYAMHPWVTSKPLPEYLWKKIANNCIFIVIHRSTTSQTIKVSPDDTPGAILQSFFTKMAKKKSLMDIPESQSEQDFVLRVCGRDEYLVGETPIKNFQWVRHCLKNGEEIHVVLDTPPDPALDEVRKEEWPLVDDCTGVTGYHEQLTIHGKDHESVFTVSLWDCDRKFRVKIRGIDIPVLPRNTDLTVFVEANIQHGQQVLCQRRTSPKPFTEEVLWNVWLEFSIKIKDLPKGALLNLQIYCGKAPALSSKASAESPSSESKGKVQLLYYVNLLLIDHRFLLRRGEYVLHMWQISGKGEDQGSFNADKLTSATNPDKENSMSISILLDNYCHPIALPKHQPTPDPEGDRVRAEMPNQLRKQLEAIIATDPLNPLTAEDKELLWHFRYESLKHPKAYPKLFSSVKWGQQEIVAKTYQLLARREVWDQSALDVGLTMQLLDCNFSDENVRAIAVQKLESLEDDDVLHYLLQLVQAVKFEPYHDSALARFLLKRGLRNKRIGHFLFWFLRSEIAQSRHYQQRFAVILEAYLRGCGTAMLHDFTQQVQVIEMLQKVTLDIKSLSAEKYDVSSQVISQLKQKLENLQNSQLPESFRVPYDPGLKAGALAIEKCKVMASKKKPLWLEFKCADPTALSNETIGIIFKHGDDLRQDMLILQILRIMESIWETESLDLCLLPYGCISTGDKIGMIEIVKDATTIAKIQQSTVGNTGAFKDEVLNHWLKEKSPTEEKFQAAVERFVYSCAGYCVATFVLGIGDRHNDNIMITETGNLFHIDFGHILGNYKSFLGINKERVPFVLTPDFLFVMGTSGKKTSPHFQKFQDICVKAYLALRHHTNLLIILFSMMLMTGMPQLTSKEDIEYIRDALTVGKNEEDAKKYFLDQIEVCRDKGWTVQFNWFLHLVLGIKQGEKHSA

Row | IC50 [1] | Kd (PIK3Cδ_h) | Kd (PIK3Cβ_h) | Kd (MTOR_h) | Kd (PIK3Cγ_h) | Kd (PIK3Cα_h) | melting point | IC50 [2] | SMILES
1 | 50 nM | 52 nM | 1.6 nM | 4370 nM | 891 nM | 513 nM | 198 °C | 54 nM | Cc1c(Cc2c(CN3CC(O)C3)nc3c(-c4ncc[nH]4)cc(N4CCOCC4)nn23)cccc1C(F)(F)F [Compound 19]
2 | 65 nM | 79 nM | < 1.5 nM | > 30200 nM | 6760 nM | 813 nM | 171 °C | 58 nM | Cc1c(Cc2c(CN3CCCC(CO)C3)nc3c(-c4ncc[nH]4)cc(N4CCOCC4)nn23)cccc1C(F)(F)F (centres unmarked) [Compound 17]
3 | 10 nM | 62 nM | 0.4 nM | 1380 nM | > 30200 nM | 2040 nM | 130 °C | 17 nM | Cc1c(F)cccc1Cc1c(CN2CCS(=O)(=O)CC2)nc2c(N)cc(N3CCOCC3)nn12 [Compound 43]
4 | 25 nM | 195 nM | 1.6 nM | 15500 nM | 30900 nM | 11500 nM | 210 °C | ~20 nM | Cc1c(Cc2c(CN3CC(S(C)(=O)=O)C3)nc3c(N)cc(N4CCOCC4)nn23)cccc1C(F)(F)F [Compound 8]
5 | 10 nM | 81 nM | 0.7 nM | 11700 nM | > 30200 nM | 1860 nM | 214 °C | 7 nM | Cc1c(Cc2c(CN3CCS(=O)(=O)CC3)nc3c(N)cc(N4CCOCC4)nn23)cccc1C(F)(F)F [Compound 11]
6 | 316 nM | 275 nM | 5.4 nM | 1050 nM | 537 nM | 1700 nM | 172 °C | 145 nM | CCc1c(F)cccc1Cc1c(CN2CC(O)C2)nc2c(N)cc(N3CCOCC3)nn12 [Compound 44]
7 | 76 nM | 65 nM | 0.6 nM | > 30200 nM | > 30200 nM | 14500 nM | 215 °C | ~39 nM | Cc1c(Cc2c(CN3CCC(CO)CC3)nc3c(N)cc(N4CCOCC4)nn23)cccc1C(F)(F)F [Compound 9]
8 | 117 nM | 123 nM | 1.1 nM | 1230 nM | 2690 nM | 4470 nM | 214 °C | 55 nM | Cc1c(F)cccc1Cc1c(CN2CC(O)C2)nc2c(N)cc(N3CCOCC3)nn12 [Compound 42]
9 | 18 nM | 166 nM | 2.3 nM | > 30200 nM | > 30200 nM | 3980 nM | 188 °C | ~33 nM | Cc1c(Cc2c(CN3CCC(S(C)(=O)=O)CC3)nc3c(N)cc(N4CCOCC4)nn23)cccc1C(F)(F)F [Compound 4]
10 | 40 nM | 263 nM | 2.4 nM | 21900 nM | > 30200 nM | 7080 nM | 159 °C | ~13 nM | Cc1c(Cc2c(CN3CCC(S(C)(=O)=O)C3)nc3c(N)cc(N4CCOCC4)nn23)cccc1C(F)(F)F (centres unmarked) [Compound 6]
11 | 49 nM | 52 nM | 0.5 nM | 3980 nM | 17000 nM | 3160 nM | 130 °C | 15 nM | Cc1c(Cc2c(CC(=O)N3CC(CO)C3)nc3c(N)cc(N4CCOCC4)nn23)cccc1C(F)(F)F [Compound 24]
12 | 214 nM | 479 nM | 2.8 nM | 21900 nM | > 30200 nM | 25100 nM | 99 °C | 105 nM | Cc1c(Cc2c(COC(=O)CN3CCN(C)CC3)nc3c(N)cc(N4CCOCC4)nn23)cccc1C(F)(F)F [Compound 40b]
13 | 120 nM | 398 nM | 3 nM | > 30200 nM | > 30200 nM | 13500 nM | 228 °C | 100 nM | Cc1c(Cc2c(CN3CCC4(CCCCS4(=O)=O)C3)nc3c(N)cc(N4CCOCC4)nn23)cccc1C(F)(F)F (centres unmarked) [Compound 33]
14 | 158 nM | 68 nM | 0.8 nM | 5130 nM | 4900 nM | 5490 nM | 212 °C | 141 nM | Cc1c(Cc2c(CNC(=O)[C@H]3CCCN3)nc3c(N)cc(N4CCOCC4)nn23)cccc1C(F)(F)F (stereo in doubt) [Compound 37]
15 | 9 nM | 12 nM | 1.2 nM | 3160 nM | 933 nM | 162 nM | 217 °C | ~4 nM | Cc1c(Cc2c(CN3CC4(C3)CS(=O)(=O)C4)nc3c(-c4cnc[nH]4)cc(N4CCOCC4)nn23)cccc1C(F)(F)F [Compound 1]
16 | 45 nM | 56 nM | 0.5 nM | 10700 nM | 8910 nM | 2240 nM | 110 °C | ~26 nM | Cc1c(Cc2c(CC(=O)N3CC(C)NC(C)C3)nc3c(N)cc(N4CCOCC4)nn23)cccc1C(F)(F)F (centres unmarked) [Compound 22]
17 | ~79 nM | 240 nM | 1.5 nM | > 30200 nM | > 30200 nM | 2240 nM | 226 °C | ~68 nM | Cc1c(Cc2c(CC(=O)N3CCS(=O)(=O)CC3)nc3c(N)cc(N4CCOCC4)nn23)cccc1C(F)(F)F [Compound 23]
18 | 6 nM | 23 nM | 2.1 nM | 21400 nM | > 30200 nM | 5490 nM | 180 °C | ~4 nM | Cc1c(Cc2c(CN3CC4(CCS4(=O)=O)C3)nc3c(N)cc(N4CCOCC4)nn23)cccc1C(F)(F)F [Compound 2]
19 | ~34 nM | 32 nM | 1.3 nM | 9330 nM | 1550 nM | 275 nM | 150 °C | ~20 nM | Cc1c(Cc2c(CN3CC4(C3)CS(=O)(=O)C4)nc3c(-c4ncc[nH]4)cc(N4CCOCC4)nn23)cccc1C(F)(F)F [Compound 20]
